The numbers were not newly measured in patent US20030225048A1, “Sulfatase inhibiting continuous progestogen contraceptive regimens” (priority 2002, published 2003), which cites them from elsewhere.

The conditions of the data set: humans; norelgestromin is the major metabolite.

As for `C#C[C@]1(OC(C)=O)CC[C@H]2[C@@H]3CCC4=CC(=NO)CC[C@@H]4[C@H]3CC[C@@]21CC` (mixture of isomers) [norgestimate], the “norgestimate converted to norelgestromin in vivo” value was at least 80%.
